Patent publication US20160130311A1, “T CELL EPITOPES DERIVED FROM ALT A 1 OR ALT A 5 FOR THE TREATMENT OF ALTERNARIA ALTERNATA ALLERGY” (priority 2013, published 2016)
“Also recorded” adds a separate entry of the source.

System: PBMCs of Alternaria allergic patients and control subjects
Assay: IL-4 ELISPOT of PBMCs exposed to peptide
Assay type: cell-based, human
Settings: Alt a 5 peptide; three Alternaria patients; methods as Example 1
Excerpt: Peripheral blood was obtained by venipuncture from Alternaria allergic patients and non-sensitized controls. Peripheral blood mononuclear cells (PBMCs) were isolated from heparinized blood by standard Ficoll density gradient centrifugation. PBMCs were washed with CTL (Cellular Technology Limited, Cleveland, Ohio, USA) wash medium containing RPMI-1640 with L-glutamine (Lonza, Basel, Switzerland) before being counted by haemocytometer using trypan blue stain (Sigma). PBMCs (10 million/ml) were resuspended in CTL-Cryo ABC serum-free freezing medium according to the manufacturer's protocol before being frozen overnight at −80° C. and transferred to and stored in liquid nitrogen until time of use.
Enzyme-linked immunospot assay (ELISPOT) analysis was performed utilizing 16 Alternaria patients and 11 controls. For an individual peptide the number of Alternaria patients tested ranged between 10-15 and the number of control subjects ranged between 7-9. Ten Alternaria patients were fully tested with all 22 peptides. For ELISPOT, the BD ELISPOT Human IL-4 Set (BD Biosciences, San Diego, Calif., USA) was used to analyze IL-4 production by human PBMCs. Plates were coated overnight at 4° C. with IL-4 capture antibody (BD Biosciences) and then washed 3 times with Dulbecco's Phosphate Buffer Saline (DPBS, Sigma). Plates were blocked with 1% BSA (Sigma) in PBS for 2 h at room temperature and washed 3 times with DPBS. Cryopreserved Alternaria patient and control subject PBMCs were thawed rapidly, washed, counted, and resuspended in CTL Test Medium supplemented with 2 mM L-glutamine (Sigma) and used at a concentration of 300,000 cells/well contained in 100 μl. […] The plates were dried and analyzed on the ImmunoSpot UV Core ELISPOT Plate Reader (Cellular Technology Limited).
The two-independent sample Wilcoxon rank sum test was used for statistical analysis of ELISPOT data (26). A one-sided control<patient p-value was determined except for peptides 7-21 and 143-157 where a one-sided patient >control p-value was calculated. […]
Two methods were evaluated to interpret the IL-4 ELISPOT spot count data. […]

Molecule | activity in Alternaria patients (ELISPOT)
H-AAYLLLGLGGNTSPS-OH [p5-19] | active in all 3 patients

Same assay, conditions: IL-4 ELISPOT, cut-off >9 spot counts

Molecule | number of patients stimulated
CC[C@H](C)[C@H](NC(=O)[C@H](Cc1ccc(O)cc1)NC(=O)[C@H](C)NC(=O)[C@H](CC(=O)O)NC(=O)[C@H](C)NC(=O)[C@@H](N)C(C)C)C(=O)N[C@H](C(=O)N[C@@H](CC(C)C)C(=O)N[C@H](C(=O)N[C@H](C(=O)N[C@@H](CC(C)C)C(=O)N1CCC[C@H]1C(=O)N[C@@H](CCCCN)C(=O)N[C@@H](CO)C(=O)N[C@@H](CO)C(=O)O)[C@@H](C)O)C(C)C)[C@@H](C)O [p143-157] | one
H-LQFTTIASLFAAAGL-OH [p1-15] | one

Target: DRB1*0101, 0301, 0401, 0701, 1101, 1301,1501 (Homo sapiens, UniProt P01903+P01911, A100R/D57E/F55L/F60I/F76Y/I96L/L162R/M171V/P40L/Q125E/R42F/V115G/Y59C)
Assay: REVEAL Class II binding assay and Quick Check Stability Assay (MHC-peptide binding)
Settings: 7 DRB1 alleles; stability index ≧1.0 considered positive for MHC binding
Procedure: The MHC restriction of peptides from ProPred prediction were evaluated using the REVEAL Class II binding assay and Quick Check Stability Assay performed by ProImmune (Oxford, United Kingdom). In the REVEAL cell free in vitro assay, the binding of a peptide to an HLA molecule is determined by its ability to stabilize a MHC class II-peptide complex. Each MHC class II-peptide binding was scored relative to a validated proprietary T cell epitope control peptide. The score was determined as the percentage of the signal generated by the test peptide versus the level for the positive control peptide and reflects the on-rate properties of peptide. The off-rate properties of the peptide were determined by the Quick Check Stability Assay which measured the amount of peptide bound at time zero and time 24 hours at 37° C. The two signals were used to estimate a half-life which was multiplied by the REVEAL score and divided by 100 to yield the combined stability index. A stability index ≧1.0 was considered positive for MHC binding.
To confirm ProPred predictions and to validate peptides for continued analysis using IL-4 ELISPOT, an in vitro MHC-peptide binding assay was used to measure binding of 22/25 15mers (excluding p3-17, 42-56, and 43-57) to the 7 DRB1 alleles which accounted for the majority of the ProPred predictions (Table II). […] High stringency binding prediction rates were accurate for alleles *0301 (none predicted) and *1501 (none predicted), while inaccurate with low stringency positive binding prediction rates of 0% (0/10) and 25% (1/4), respectively. Both alleles *0301 and *1501 had low false negative rates of 8% (1/12) and 6% (1/18), respectively. ProPred was inaccurate at both high and low stringency for the three remaining alleles with a 0% binding prediction rate for *0701 (0/9), *1101 (0/14) and *1301 (0/7) but also yielding 0% false negative rates at 0/13, 0/8 and 0/14, respectively. […]

Molecule | in vitro binding to DRB1 alleles
H-EGDYVWKISEFYGRK-OH [p35-49] | non-binding; also recorded: no in vitro binding to any DRB1 allele
H-SGLLLKQKVSDDITY-OH [p104-118] | non-binding; also recorded: no in vitro binding to any DRB1 allele
H-RSGLLLKQKVSDDIT-OH [p103-117] | non-binding; also recorded: no in vitro binding to any DRB1 allele

System: T cells expanded for 14 days with allergen extract and IL-2
Assay: not given
Settings: allergic population; cited from earlier work

Molecule | IL-5 and INF-γ ELISPOT result
CC[C@H](C)[C@H](NC(=O)[C@H](Cc1ccc(O)cc1)NC(=O)[C@H](C)NC(=O)[C@H](CC(=O)O)NC(=O)[C@H](C)NC(=O)[C@@H](N)C(C)C)C(=O)N[C@H](C(=O)N[C@@H](CC(C)C)C(=O)N[C@H](C(=O)N[C@H](C(=O)N[C@@H](CC(C)C)C(=O)N1CCC[C@H]1C(=O)N[C@@H](CCCCN)C(=O)N[C@@H](CO)C(=O)N[C@@H](CO)C(=O)O)[C@@H](C)O)C(C)C)[C@@H](C)O [p143-157] | positive for IL-5 only
CC[C@H](C)[C@H](N)C(=O)N[C@@H](C)C(=O)N[C@@H](CO)C(=O)N[C@@H](CC(C)C)C(=O)N[C@@H](Cc1ccccc1)C(=O)N[C@@H](C)C(=O)N[C@@H](C)C(=O)N[C@@H](C)C(=O)NCC(=O)N[C@@H](CC(C)C)C(=O)N[C@@H](C)C(=O)N[C@@H](C)C(=O)N[C@@H](C)C(=O)N[C@@H](C)C(=O)N1CCC[C@H]1C(=O)O [p6-20] | positive for IL-5 only
H-LQFTTIASLFAAAGL-OH [p1-15] | negative to both cytokines

System: not listed separately
Assay: Peptide solubility in sterile pure water
Assay type: physicochemical
Settings: not given
Procedure: The theoretical average peptide hydrophilicity was calculated using the Hopp and Woods scale (28). For solubility determination, peptides were dissolved in sterile pure water at 50mg/ml (pH=7), mixed, centrifuged and the presence of a pellet indicated insolubility. Insoluble peptides were sequentially diluted and tested down to 2.5mg/ml or until solubility was observed. Peptides not fully dissolved at 2.5mg/ml were considered insoluble in this study.

solubility in H2O | Molecule
soluble | H-ANSLGFNIKATNGGT-OH [p55-69:Y55A]
soluble | H-SNSLGFNIKATNGGT-OH [p55-69:Y55S]
insoluble | H-EKDFVVQGVADAYIT-OH [p135-149:P135E]
insoluble | H-AADAYITLVTLPKSS-OH [p143-157:V143A]
soluble | H-ENSLGFNIKATNGGT-OH [p55-69:Y55E]
insoluble | H-EDDITYVATATLPNY-OH [p113-127:S113E]
insoluble | H-EETYYNSLGFNIKAT-OH [p51-65:G52E]
soluble | H-STYYNSLGFNIKATN-OH [p52-66:G52S]
insoluble | H-VNSLGFNIKATNGGT-OH [p55-69:Y55V]
soluble | H-EADAYITLVTLPKSS-OH [p143-157:V143E]

Continued, molecule first:

Molecule | solubility in H2O
CC[C@H](C)[C@H](NC(=O)[C@H](Cc1ccc(O)cc1)NC(=O)[C@H](C)NC(=O)[C@H](CC(=O)O)NC(=O)[C@H](C)NC(=O)[C@@H](N)C(C)C)C(=O)N[C@H](C(=O)N[C@@H](CC(C)C)C(=O)N[C@H](C(=O)N[C@H](C(=O)N[C@@H](CC(C)C)C(=O)N1CCC[C@H]1C(=O)N[C@@H](CCCCN)C(=O)N[C@@H](CO)C(=O)N[C@@H](CO)C(=O)O)[C@@H](C)O)C(C)C)[C@@H](C)O [p143-157] | insoluble
H-SKDFVVQGVADAYIT-OH [p135-149:P135S] | insoluble
H-ETYYNSLGFNIKATN-OH [p52-66:G52E] | insoluble
H-ESTYYNSLGFNIKAT-OH [p51-65:G52S] | soluble
H-SADAYITLVTLPKSS-OH [p143-157:V143S] | soluble
CC[C@H](C)[C@H](N)C(=O)N[C@@H](C)C(=O)N[C@@H](CO)C(=O)N[C@@H](CC(C)C)C(=O)N[C@@H](Cc1ccccc1)C(=O)N[C@@H](C)C(=O)N[C@@H](C)C(=O)N[C@@H](C)C(=O)NCC(=O)N[C@@H](CC(C)C)C(=O)N[C@@H](C)C(=O)N[C@@H](C)C(=O)N[C@@H](C)C(=O)N[C@@H](C)C(=O)N1CCC[C@H]1C(=O)O [p6-20] | insoluble
H-PKDFVVQGVADAYIT-OH [p135-149] | insoluble
H-LQFTTIASLFAAAGL-OH [p1-15] | insoluble

Same assay, conditions: sterile pure water pH=7, 50mg/ml diluted down to 2.5mg/ml; not fully dissolved at 2.5mg/ml = insoluble

solubility in H2O | Molecule
insoluble | H-GTYYNSLGFNIKATN-OH [p52-66]
insoluble | H-EGTYYNSLGFNIKAT-OH [p51-65]

Continued, molecule first:

Molecule | solubility in H2O
H-ASLFAAAGLAAAAPL-OH [p7-21] | insoluble
H-SDDITYVATATLPNY-OH [p113-127] | insoluble
H-YNSLGFNIKATNGGT-OH [p55-69] | insoluble
H-FTTIASLFAAAGLAA-OH [p3-17] | insoluble
